The record followed here is ChEMBL document CHEMBL1140271, “Synthesis and antibacterial activity of 5-methoxy- and 5-hydroxy-6-fluoro-1,8-naphthyridone-3-carboxylic acid derivatives” (Bioorg Med Chem Lett, 2005).

Usually pIC50 stands for the IC50 on a negative log10 scale, so that one unit is a factor of ten.

One experiment relates to Haemophilus influenzae. Description: Minimum inhibitory concentration against Haemophilus influenzae GYR 1435 gram-negative strain. It is filed as functional.
Experiment [1] deals with Streptococcus pneumoniae. Description: Inhibitory concentration against Streptococcus pneumoniae translation. Format: functional, organism-based.
The test system of experiment [2] is Streptococcus pneumoniae. The experiment is described as follows: Minimum inhibitory concentration against Streptococcus pneumoniae 7257 Quinolone-resistant strain. It is filed as functional.

pIC50: −log10 of the molar value. Converted amounts (≈) assume the structure as drawn.

Take `C[C@H]1COc2c(N3CCN(C)CC3)c(F)cc3c(=O)c(C(=O)O)cn1c23.C[C@H]1COc2c(N3CCN(C)CC3)c(F)cc3c(=O)c(C(=O)O)cn1c23.O` [LEVOFLOXACIN]: in the experiment with Haemophilus influenzae, the MIC was determined as 0.015 µg/mL. The compound also gave a pIC50 with Streptococcus pneumoniae [1] below 4.00.

For `COc1c(F)c(N2CCCC2)nc2ncc(C(=O)O)c(O)c12`, the MIC was 64 µg/mL (≈ 208 µM) in the experiment with Haemophilus influenzae and 32 µg/mL (≈ 104 µM) in the experiment with Streptococcus pneumoniae [2]. In the experiment with Streptococcus pneumoniae [1], this compound had a pIC50 of 4.49.

Regarding `O=C(O)c1cnc2nc(N3CCC3)c(F)c(O)c2c1O`, the MIC in the experiment with Haemophilus influenzae and against Streptococcus pneumoniae [2] was 64 µg/mL (≈ 229 µM) each time. Further, the negative logarithm of the IC50 (pIC50) with Streptococcus pneumoniae [1] is 3.70.

For `NC1CCN(c2nc3ncc(C(=O)O)c(O)c3cc2F)C1` (centres undefined), the figures for the MIC in the experiment with Haemophilus influenzae and in the experiment with Streptococcus pneumoniae [2] were 4 µg/mL (≈ 13.7 µM) and 32 µg/mL (≈ 109 µM), respectively. The pIC50 with Streptococcus pneumoniae [1] was 5.15.

On to `O=C(O)c1cnc2nc(N3CCC3)c(F)cc2c1O`, for which the MIC in the experiment on Haemophilus influenzae worked out at 1 µg/mL (≈ 3.8 µM); in the experiment with Streptococcus pneumoniae [2], 4 µg/mL (≈ 15.2 µM). Further, in the experiment on Streptococcus pneumoniae [1], the pIC50 is 5.30.

Turning to `O=C(O)c1cnc2nc(N3CCCC3)c(F)cc2c1O`, the figures for the MIC in the experiment on Haemophilus influenzae and with Streptococcus pneumoniae [2] were 1 µg/mL (≈ 3.61 µM) and 4 µg/mL (≈ 14.4 µM), respectively. In the experiment with Streptococcus pneumoniae [1], this compound showed a pIC50 of 5.00.

Take `NC1CCN(c2nc3ncc(C(=O)O)c(O)c3c(O)c2F)C1` (centres undefined): the figures for the MIC against Haemophilus influenzae and in the experiment with Streptococcus pneumoniae [2] were 32 µg/mL (≈ 104 µM) and 64 µg/mL (≈ 208 µM), respectively. Also, the pIC50 with Streptococcus pneumoniae [1] was 4.77.

Take `COc1c(F)c(N2CCC2)nc2ncc(C(=O)O)c(O)c12`: the MIC with Haemophilus influenzae turned out to be 32 µg/mL (≈ 109 µM); against Streptococcus pneumoniae [2], 8 µg/mL (≈ 27.3 µM). Moreover, the pIC50 in the experiment with Streptococcus pneumoniae [1] is 4.85.

`COc1c(F)c(N2CCC(N)C2)nc2ncc(C(=O)O)c(O)c12` (centres undefined): the MIC with Haemophilus influenzae and against Streptococcus pneumoniae [2] was 64 µg/mL (≈ 199 µM) in each case. Also, the pIC50 in the experiment with Streptococcus pneumoniae [1] was 5.40.

`O=C(O)c1cnc2nc(N3CCCC3)c(F)c(O)c2c1O`: the MIC against Haemophilus influenzae and with Streptococcus pneumoniae [2] was 4 µg/mL (≈ 13.6 µM) each time. The same compound showed a pIC50 with Streptococcus pneumoniae [1] of 4.29.
